# Several values for one entry are separate records, joined by “and”; a condition that tells them apart may be missing. Equal values may be shown once.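 Compound exposure: 48 hours, 5 concentrations, 96-well plates. The concentration for 50% growth inhibition is given as GI50. TGI denotes the concentration required for complete inhibition of growth.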
# Columns and labels:
# Experiment in all cases: growth of human tumour cells (NCI), 48 h
# [1] = tested on: ACHN renal
# [2] = tested on: K-562 leukemia
# [3] = tested on: M14 melanoma
# [4] = tested on: MDA-MB-435
# [5] = tested on: NCI/ADR-RES ovarian
# [6] = tested on: PC-3 prostate
# [7] = tested on: SK-OV-3 ovarian
# [8] = tested on: SN12C renal
# [9] = tested on: U251 CNS
# [10] = tested on: UACC-257 melanoma
Compound,GI50 [1] [µM],TGI [1] [µM],GI50 [2],TGI [2],GI50 [3] [µM],TGI [3] [µM],GI50 [4] [µM],TGI [4] [µM],GI50 [5] [µM],TGI [5] [µM],GI50 [6],TGI [6] [µM],GI50 [7] [µM],TGI [7] [µM],GI50 [8] [µM],TGI [8] [µM],GI50 [9],TGI [9],GI50 [10] [µM],TGI [10] [µM]
OCC(O)C(O)C(O)C(O)c1nnc2c(-c3ccccc3)nc3ccccc3n12 (stereo not given),> 100,> 100,78.3 µM,> 100 µM,> 100,> 100,> 100,> 100,69.2,> 100,43.2 µM,> 100,> 100,> 100,> 100,> 100,> 100 µM,> 100 µM,> 100,> 100
NC1=NCN(C2OC(CO)C(O)C2O)C(=O)N1 (stereo not given),–,106,–,788 µM,–,405,–,154,–,2270,–,1530,–,943,–,1680,–,2410 µM,–,1430
CC(=O)OCC1OC(n2c3c(cc(C#N)c2=S)CCCC3)C(OC(C)=O)C(OC(C)=O)C1OC(C)=O (stereo not given),–,> 100,24.1 µM and > 100 µM,68 µM and > 100 µM,–,> 100,–,> 100,–,> 100,36.6 µM and > 100 µM,> 100,–,–,–,> 100,> 100 µM and 21.9 µM,> 100 µM and 53 µM,–,> 100
CCOc1ccc2cc(-c3nn(CC4CCNCC4)c4ncnc(N)c34)ccc2c1,15.1,29.8,4.69 µM,17.1 µM,14.1,29.3,13.1,25.8,15.6,29.8,15.5 µM,41.9,17.3,39.3,11.5,33,13.7 µM,29.5 µM,16.8,31.1
N#Cc1cc(S(=O)(=O)Nc2nc3cc(Cl)ccc3o2)c(SCc2ccccc2)cc1Cl,13.9,26.8,14.3 µM,27.4 µM,12.6,25.1,16.2,29.7,13.8,26.7,15.1 µM,28.3,–,–,15.4,29.1,13.4 µM,26.2 µM,13,25.7
CCOC(=O)c1c(CN2CCN(C)CC2)nc2ccc(Cl)cc2c1-c1ccccc1,12.2,25.5,1.86 µM,4.66 µM,1.91,3.78,2.71,7.87,5.35,14.5,8.83 µM,24.8,12.8,25.8,11.6,25.9,8.26 µM,23 µM,2.03,3.98
CCOC(=O)/C(=C\c1ccc2ccccc2c1)P(=O)(OCC)OCC,2.31,6.3,2.73 µM,50.8 µM,2.18,5.59,2.92,13.3,3.15,11.2,2.84 µM,6.81,8.84,20.9,2.85,8.89,2.64 µM,7.86 µM,2.59,7.14
